Test results: US8530648B2, “Diaza-spiro[5.5]undecanes” (Novartis AG, priority 2009, dated 2013)
pKi: −log10 of the molar value.

How the values were obtained:
hOx2R = hOx2R (Homo sapiens (Human), UniProt O43614); test: Calcium accumulation in cells (FLIPR), hOx2R; assay type: cell-based; settings: for pKi: inhibition of orexin A induced calcium accumulation, Cheng and Prusoff correction; for inhibition at 10 µM: measured at a concentration of 10 μM of compound
Protocol: (§1) Calcium Accumulation in Cells (FLIPR):
(§2) Cells expressing human orexin 1 or human orexin 2 receptors, were seeded at 8,000 cells/well in 384 well black-walled clear bottom, poly-D-lysine coated plates. After 24 h, the medium was removed and cells were washed once with phosphate buffered saline and serum-deprived overnight in assay buffer (130 mM NaCl, 5.4 mM KCl, 1.8 mM CaCl2, 0.8 mM MgSO4, 0.9 mM NaH2PO4, 25 mM glucose, 20 mM HEPES, pH 7.4) containing bovine serum albumin (1% w/v).
(§3) On the day of the experiment, the cells seeded in black plates were treated with assay buffer containing the Ca^2+ sensitive fluorescent dye Fluo-4-AM (2 μM), and probenecid (0.1 mM). After 1 h plates were washed twice with, and resuspended in, assay buffer containing probenecid (0.1 mM) using a multi plate washer. […] Fluorescence measurements were then continued every 1 S for 120 S followed by every 4 S for 240 S.
(§4) The measurements were typically made in two sequences:
(§5) Compounds of formula I were tested usually in a concentration range from 10^−9 M to 10^−5 M.
(§6) In the second round, performed one hour later (to allow for equilibration), Orexin A was tested either in the absence (calibration curves, Orexin A agonist controls) or in the presence of compounds of formula I to determine antagonism.

hOx1R = hOx1R (Homo sapiens (Human), UniProt O43613); test: Calcium accumulation in cells (FLIPR), hOx1R; assay type: cell-based; settings: for inhibition at 10 µM: measured at a concentration of 10 μM of compound; for pKi: inhibition of orexin A induced calcium accumulation, Cheng and Prusoff correction
hOx1R, sequence (O43613 whole entry): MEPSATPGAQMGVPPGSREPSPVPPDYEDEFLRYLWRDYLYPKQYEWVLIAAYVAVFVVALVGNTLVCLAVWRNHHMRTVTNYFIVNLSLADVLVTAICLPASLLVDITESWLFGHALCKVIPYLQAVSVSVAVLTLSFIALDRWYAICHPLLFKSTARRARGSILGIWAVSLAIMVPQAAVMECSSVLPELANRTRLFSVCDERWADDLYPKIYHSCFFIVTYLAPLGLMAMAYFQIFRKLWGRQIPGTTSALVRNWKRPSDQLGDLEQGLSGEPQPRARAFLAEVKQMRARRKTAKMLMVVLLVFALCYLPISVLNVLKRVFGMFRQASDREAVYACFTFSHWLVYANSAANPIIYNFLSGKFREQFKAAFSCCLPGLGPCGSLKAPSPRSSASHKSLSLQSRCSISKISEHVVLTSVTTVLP
Protocol: as §1, §2, §3, §4, §5, §6

hOx2R, sequence (O43614 whole entry): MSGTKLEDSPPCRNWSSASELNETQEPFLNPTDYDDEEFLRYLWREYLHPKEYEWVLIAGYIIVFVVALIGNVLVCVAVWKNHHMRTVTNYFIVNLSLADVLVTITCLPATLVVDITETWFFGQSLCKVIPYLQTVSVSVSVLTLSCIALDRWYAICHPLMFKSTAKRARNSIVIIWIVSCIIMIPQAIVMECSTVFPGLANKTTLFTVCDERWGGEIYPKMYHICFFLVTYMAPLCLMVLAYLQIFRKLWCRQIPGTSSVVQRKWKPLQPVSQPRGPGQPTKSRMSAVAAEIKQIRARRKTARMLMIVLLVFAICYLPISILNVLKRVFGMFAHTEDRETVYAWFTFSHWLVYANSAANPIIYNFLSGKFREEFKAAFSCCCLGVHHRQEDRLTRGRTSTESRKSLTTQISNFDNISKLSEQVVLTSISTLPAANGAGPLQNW

Compound	pKi (hOx2R)	inhibition at 10 µM (hOx1R) [%]	inhibition at 10 µM (hOx2R) [%]	pKi (hOx1R)
Cc1cc(CN2CCCC3(CCN(c4cnc5ccccc5n4)CC3)C2=O)no1 [Example 88, 2-((5-methylisoxazol-3-yl)methyl)-9-(quinoxalin-2-yl)-2,9-diazaspiro[5.5]undecan-1-one]		11	25	
O=C1N(Cc2noc(C3CCC3)n2)CCCC12CCN(c1cnc3ccccc3n1)CC2 [Example 89, 2-((5-cyclobutyl-1,2,4-oxadiazol-3-yl)methyl)-9-(quinoxalin-2-yl)-2,9-diazaspiro[5.5]undecan-1-one]		29	24	
COc1ccnc(CN2CCCC3(CCN(c4cnc5ccccc5n4)CC3)C2=O)c1OC [Example 91, 2-((3,4-dimethoxypyridin-2-yl)methyl)-9-(quinoxalin-2-yl)-2,9-diazaspiro[5.5]undecan-1-one]			38	5.54
O=C1N(Cc2cc(=O)[nH]c3ccccc23)CCCC12CCN(c1cnc3ccccc3n1)CC2 [Example 96, 4-((1-oxo-9-(quinoxalin-2-yl)-2,9-diazaspiro[5.5]undecan-2-yl)methyl)quinolin-2(1H)-one]	6.20			5.62
N#Cc1ccc(F)c(CN2CCCC3(CCN(c4cnc5ccccc5n4)CC3)C2=O)c1 [Example 99, 4-fluoro-3-((1-oxo-9-(quinoxalin-2-yl)-2,9-diazaspiro[5.5]undecan-2-yl)methyl)benzonitrile]	6.85			5.96
COc1cccc(CN2CCCC3(CCN(c4cnc5ccccc5n4)CC3)C2=O)c1F [Example 102, 2-(2-fluoro-3-methoxybenzyl)-9-(quinoxalin-2-yl)-2,9-diazaspiro[5.5]undecan-1-one]	6.65			5.61
O=C1N(Cc2cccc(N3CCCC3)n2)CCCC12CCN(c1cnc3ccccc3n1)CC2 [Example 103, 2-((6-(pyrrolidln-1-yl)pyridin-2-yl)methyl)-9-(quinoxalin-2-yl)-2,9-diazaspiro[5.5]undecan-1-one]	5.93			5.60
Cc1cc(CN2CCCC3(CCN(c4cnc5ccccc5n4)CC3)C2=O)on1 [Example 105, 2-((3-methylisoxazol-5-yl)methyl)-9-(quinoxalin-2-yl)-2,9-diazaspiro[5.5]undecan-1-one]	5.86	47		
Cc1cc(C)nc(CN2CCCC3(CCN(c4cnc5ccccc5n4)CC3)C2=O)c1 [Example 106, 2-((4,6-dimethylpyridin-2-yl)methyl)-9-(quinoxalin-2-yl)-2,9-diazaspiro[5.5]undecan-1-one]	5.87	35		
COc1ccccc1-n1ccnc1CN1CCCC2(CCN(c3cnc4ccccc4n3)CC2)C1=O [Example 112, 2-((1-(2-methoxyphenyl)-1H-imidazol-2-yl)methyl)-9-(quinoxalin-2-yl)-2,9-diazaspiro[5.5]undecan-1-one]	5.80			5.45

The next lines start with the values.

pKi (hOx2R)	inhibition at 10 µM (hOx1R) [%]	inhibition at 10 µM (hOx2R) [%]	pKi (hOx1R)	Compound
5.80	13			O=C1N(Cc2ccc(-n3cncn3)cc2)CCCC12CCN(c1cnc3ccccc3n1)CC2 [Example 81, 2-(4-(1H-1,2,4-triazol-1-yl)benzyl)-9-(quinoxalin-2-yl)-2,9-diazaspiro[5.5]undecan-1-one]
	40	46		Cc1cc(CN2CCCC3(CCN(c4cnc5ccccc5n4)CC3)C2=O)nn1C [Example 84, 2-((1,5-dimethyl-1H-pyrazol-3-yl)methyl)-9-(quinoxalin-2-yl)-2,9-diazaspiro[5.5]undecan-1-one]
6.09	15			O=C1N(Cc2ccccc2-n2cccn2)CCCC12CCN(c1cnc3ccccc3n1)CC2 [Example 85, 2-(2-(1H-pyrazol-1-yl)benzyl)-9-(quinoxalin-2-yl)-2,9-diazaspiro[5.5]undecan-1-one]
6.43	47			O=C1N(Cc2nccn2Cc2ccccc2)CCCC12CCN(c1cnc3ccccc3n1)CC2 [Example 86, 2-((1-benzyl-1H-imidazol-2-yl)methyl)-9-(quinoxalin-2-yl)-2,9-diazaspiro[5.5]undecan-1-one]
	17	12		O=C1N(Cc2ccc(C(F)(F)F)nc2)CCCC12CCN(c1cnc3ccccc3n1)CC2 [Example 90, 9-(quinoxalin-2-yl)-2-((6-(trifluoromethyl)pyridin-3-yl)methyl)-2,9-diazaspiro[5.5]undecan-1-one]
6.19			5.51	N#Cc1cccc(CN2CCCC3(CCN(c4cnc5ccccc5n4)CC3)C2=O)c1 [Example 92, 3-((1-oxo-9-(quinoxalin-2-yl)-2,9-diazaspiro[5.5]undecan-2-yl)methyl)benzonitrile]
6.80			5.88	O=C1N(Cc2nccc3ccccc23)CCCC12CCN(c1cnc3ccccc3n1)CC2 [Example 93, 2-(isoquinolin-1-ylmethyl)-9-(quinoxalin-2-yl)-2,9-diazaspiro[5.5]undecan-1-one]
6.55			5.77	N#Cc1cc(CN2CCCC3(CCN(c4cnc5ccccc5n4)CC3)C2=O)ccc1F [Example 94, 2-fluoro-5-((1-oxo-9-(quinoxalin-2-yl)-2,9-diazaspiro[5.5]undecan-2-yl)methyl)benzonitrile]
	14	33		Cc1cccc(CN2CCCC3(CCN(c4cnc5ccccc5n4)CC3)C2=O)n1 [Example 97, 2-((6-methylpyridin-2-yl)methyl)-9-(quinoxalin-2-yl)-2,9-diazaspiro[5.5]undecan-1-one]
	29	13		N#Cc1ccc(CN2CCCC3(CCN(c4cnc5ccccc5n4)CC3)C2=O)cn1 [Example 100, 5-((1-oxo-9-(quinoxalin-2-yl)-2,9-diazaspiro[5.5]undecan-2-yl)methyl)picolinonitrile]
5.86			5.55	O=C1N(Cc2ccc(-c3ncccn3)cc2)CCCC12CCN(c1cnc3ccccc3n1)CC2 [Example 101, 2-(4-(pyrimidin-2-yl)benzyl)-9-(quinoxalin-2-yl)-2,9-diazaspiro[5.5]undecan-1-one]
6.94			6.14	Cn1ncc2cccc(CN3CCCC4(CCN(c5cnc6ccccc6n5)CC4)C3=O)c21 [Example 107, 2-((1-methyl-1H-indazol-7-yl)methyl)-9-(quinoxalin-2-yl)-2,9-diazaspiro[5.5]undecan-1-one]
6.71			5.85	Cn1ncc2c(CN3CCCC4(CCN(c5cnc6ccccc6n5)CC4)C3=O)cccc21 [Example 108, 2-((1-methyl-1H-indazol-4-yl)methyl)-9-(quinoxalin-2-yl)-2,9-diazaspiro[5.5]undecan-1-one]
5.91			5.50	Cc1nnc(-c2ccc(CN3CCCC4(CCN(c5cnc6ccccc6n5)CC4)C3=O)cc2)o1 [Example 109, 2-(4-(5-methyl-1,3,4-oxadiazol-2-yl)benzyl)-9-(quinoxalin-2-yl)-2,9-diazaspiro[5.5]undecan-1-one]
6.02			5.38	O=C1N(Cc2cncn2-c2ccccc2)CCCC12CCN(c1cnc3ccccc3n1)CC2 [Example 110, 2-((1-phenyl-1H-imidazol-5-yl)methyl)-9-(quinoxalin-2-yl)-2,9-diazaspiro[5.5]undecan-1-one]
